US11174223B2, “Compositions, methods, and systems for the synthesis and use of imaging agents” (Lantheus Medical Imaging, Inc., priority 2010, dated 2021)

Experiments:
[1] = Tissue biodistribution by tissue sampling in rats; type: in vivo
Experimental: (§1) Imaging agent-1 was designed as a substrate for the norepinephrine transporter (NET) to image the cardiac sympathetic nervous system. […] These values were similar to that of MIBG (2.12±0.26 μM and 4.76±0.78 pmol/min/million cells). In animals, tissue biodistribution of imaging agent-1 was assessed by tissue sampling at 15- and 60-minute following administration. Heart uptake was 2.36±0.16 and 2.17±0.12% injected dose per g tissue (% ID/g) in rats and 0.25±0.03 and 0.28±0.03% ID/g in rabbits. In rabbits, desipramine (1 mg/kg) inhibited heart uptake of imaging agent-1 by 68% and ^123I-MIBG uptake by 55% at 1 hour post dose.

[2] = biological target: T1, NET (Rattus norvegicus, UniProt Q63380); test: Cell uptake selectivity with and without desipramine in PC-12 cells; type: cell-based
T1 construct: endogenous in cells; host or cells: PC-12
T1 sequence (Q63380 1-617): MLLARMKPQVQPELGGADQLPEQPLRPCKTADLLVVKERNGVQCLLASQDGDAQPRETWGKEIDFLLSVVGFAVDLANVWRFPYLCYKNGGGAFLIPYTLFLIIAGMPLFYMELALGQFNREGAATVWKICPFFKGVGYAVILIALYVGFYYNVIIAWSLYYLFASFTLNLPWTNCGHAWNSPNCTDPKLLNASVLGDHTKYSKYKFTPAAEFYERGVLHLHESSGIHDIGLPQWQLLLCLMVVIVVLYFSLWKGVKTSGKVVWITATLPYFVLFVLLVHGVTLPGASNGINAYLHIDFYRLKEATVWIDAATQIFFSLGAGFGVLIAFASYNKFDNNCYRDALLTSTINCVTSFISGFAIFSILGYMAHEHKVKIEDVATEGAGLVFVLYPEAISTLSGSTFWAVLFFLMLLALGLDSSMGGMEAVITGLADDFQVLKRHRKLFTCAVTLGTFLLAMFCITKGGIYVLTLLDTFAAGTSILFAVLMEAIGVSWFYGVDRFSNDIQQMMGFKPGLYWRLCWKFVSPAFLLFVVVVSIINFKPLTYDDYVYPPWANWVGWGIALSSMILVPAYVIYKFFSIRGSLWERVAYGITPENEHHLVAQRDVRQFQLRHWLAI
Experimental: (§2) The affinity (Ki) was determined in a competition binding assay by incubating ^19F-imaging agent-1, a cold analog of imaging agent-1, or NE with ^3H-desmethylimipramine in cell membrane overexpressing human NET. The uptake selectivity was assessed by measuring imaging agent-1 or ^3H-NE cell uptake with and without pretreatment of desipramine, a selective NET inhibitor, in SK—N—SH (human neuroblastoma) and PC-12 (rat pheochromocytoma) cells. In SK—NSH cells, the uptake kinetics (Km and Vmax) were evaluated by measuring NET mediated uptake of imaging agent-1 or NE at various concentrations. Imaging agent-1 cardiac image quality was evaluated by PET imaging (˜1.5 mCi, i.v.) in rabbits in the presence and absence of desipramine (1 mg/kg).

[3] = biological target: T2, NET (Homo sapiens, UniProt P23975); test: Cell uptake selectivity with and without desipramine in SK-N-SH cells; type: cell-based; parameters: endogenous in cells; host or cells: SK-N-SH
T2 sequence (P23975 whole entry): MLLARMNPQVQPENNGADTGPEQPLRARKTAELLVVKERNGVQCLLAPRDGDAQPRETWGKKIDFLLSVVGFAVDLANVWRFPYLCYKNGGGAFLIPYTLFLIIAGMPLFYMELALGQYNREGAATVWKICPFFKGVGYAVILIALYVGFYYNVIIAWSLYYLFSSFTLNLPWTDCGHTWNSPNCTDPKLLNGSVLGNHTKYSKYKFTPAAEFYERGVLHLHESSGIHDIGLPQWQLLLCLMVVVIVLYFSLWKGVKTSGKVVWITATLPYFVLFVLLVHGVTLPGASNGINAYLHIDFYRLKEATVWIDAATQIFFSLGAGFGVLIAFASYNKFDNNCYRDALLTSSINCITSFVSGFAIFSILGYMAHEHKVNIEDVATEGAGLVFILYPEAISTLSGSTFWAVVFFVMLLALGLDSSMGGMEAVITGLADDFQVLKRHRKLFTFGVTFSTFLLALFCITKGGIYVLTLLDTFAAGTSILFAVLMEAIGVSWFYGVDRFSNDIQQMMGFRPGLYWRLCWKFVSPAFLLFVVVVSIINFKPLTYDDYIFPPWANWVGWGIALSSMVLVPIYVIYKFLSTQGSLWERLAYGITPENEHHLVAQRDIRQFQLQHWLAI
Experimental: as §2

[4] = tested on: norepinephrine transporter (NET), uptake 1; test: Cardiac imaging in NHPs pretreated with desipramine; type: in vivo, nonhuman primates (NHP); details: desipramine 0.5 mg/kg
Experimental: as §1
Desipramine, a selective uptake 1 inhibitor, was used to block cardiac uptake 1 in rats (10 mg/kg, ip), rabbits (1 mg/kg iv), and NHPs (0.5 mg/kg, iv). 6-hydroxydopamine, a neurotoxin, was injected to induce sympathetic denervation in rats (100 mg/kg ip for 7 days) and rabbits (25 mg/kg iv on day 1, 2, 7, and 8). Imaging agent-1 heart uptake in comparison with MIBG was assessed by tissue sampling at 60 minutes post imaging agent injection. Imaging was also performed with (2-tert-butyl-4-chloro-5-[4-(2-[^18F]fluoroethoxymethyl)-benzyloxy]-2H-pyridazin-3-1.

[5] = Cardiac PET imaging in rabbit model of regional cardiac sympathetic denervation (RCSD) and re-innervation; type: in vivo, rabbits
Experimental: Rabbit models of RCSD were developed by applying phenol directly on the surface of the left ventricular wall during a sternotomy. Two and twelve weeks following the procedure, imaging agent-1 cardiac PET imaging (˜1.5 mCi, iv) were performed in these rabbits. The myocardial area with radioactivity ≥50% maximum was quantified as innervated region for comparison. To evaluate susceptibility of arrhythmia in rabbits, dofetilide (10 and 40 μg/kg iv, a delayed IKr inhibitor) induced changes were assessed by measuring ECG including heart rate (HR), QTc interval (corrected by Fridericia method), and frequency of arrhythmia.

[6] = biological target: T2, NET; test: NET mediated uptake kinetics in SK-N-SH cells; type: cell-based; parameters: endogenous in cells; host or cells: SK-N-SH
Experimental: as §2

[7] = Regional myocardial radioactivity concentration by dynamic PET in normal subjects; type: in vivo, human
Experimental: A human study was performed that determined the quantification of normal pattern of regional myocardial radioactivity concentration of imaging agent-1.
Normal subjects (n=6) were injected with ˜220 MBq of imaging agent-1 intravenously, and dynamic PET images were acquired over 80 min without patient movement. Attenuation corrected images were re-oriented into standard cardiac specific axes, and the maximal regional myocardial uptake was quantified on a sector-by-sector basis using WLCQ software. […] Activity was expressed as Bq/ml.

[8] = biological target: T2, NET; test: Effect of heart failure medications on NET mediated imaging agent-1 uptake in SK-N-SH cells; type: cell-based; parameters: endogenous in cells; host or cells: SK-N-SH; details: 1 million cells, 60 minutes

For N=C(N)NCc1ccc(OCCC[18F])c(Br)c1 [imaging agent-1, 1-{3-Bromo-4-[3-[^18F]fluoropropoxy]benzyl}guanidine], the Heart uptake ([1]; 15-minute following administration) was 2.36±0.16 % ID/g, the Heart uptake ([1]; 60-minute following administration) was 2.17±0.12 % ID/g and the “Inhibition of cell uptake by blockade of NET (desipramine)” value [2] was 66±7%. For the same compound, the “Inhibition of cell uptake by blockade of NET (desipramine)” value [3] was 91±1%, the “Decrease of radioactivity in the heart by desipramine pretreatment (cardiac imaging)” value [4] was 68% and the “Innervated region (myocardial area with radioactivity ≥50% maximum)” value ([5]; phenol RCSD rabbits, 2 weeks post surgery) was 12245±905 voxels. For the same compound, the “Innervated region (myocardial area with radioactivity ≥50% maximum)” value ([5]; phenol RCSD rabbits, 12 weeks) was 16812±503 voxels, the “Innervated region (myocardial area with radioactivity ≥50% maximum)” value ([5]; sham-denervated rabbits) was 20702±2190 voxels and the “Vmax (NET mediated uptake)” value [6] was 6.0±1.3 pMol/million cells/min. For the same compound, the “Clearance of radiotracer from blood” value ([7]; normal subjects n=6, ~220 MBq iv) was “cleared quickly from the blood”, the “Time at which myocardial activity reached a plateau” value ([7]; post injection) was about 60 min and the “Time of peak of regional and global myocardial activity” value ([7]; post injection) was at most 10 min. The “Myocardial uptake, Apical short axis slice” value ([7]; ~60 min post injection) was 11678±2148 Bq/ml, the “Myocardial uptake, Base short axis slice” value ([7]; ~60 min post injection) was 11284±2844 Bq/ml and the “Myocardial uptake, Mid short axis slice” value ([7]; ~60 min post injection) was 11898±2047 Bq/ml. For the same compound, the “Regional myocardial uptake, Anterior sector” value ([7]; ~60 min post injection) was 11592±2474 Bq/ml, the “Regional myocardial uptake, Inferior sector” value ([7]; ~60 min post injection) was 11818±1991 Bq/ml and the “Regional myocardial uptake, Lateral sector” value ([7]; ~60 min post injection) was 11424±2439 Bq/ml. For the same compound, the “Regional myocardial uptake, Septal sector” value ([7]; ~60 min post injection) was 11647±2829 Bq/ml and the Cell uptake [8] was 26±2%.
